{"source": "paper PMC10239507", "about": "“Development of allosteric and selective CDK2 inhibitors for contraception with negative cooperativity to cyclin binding” (Nature Communications, 2023)", "assay_in_all_cases": "biochemical", "key": {"[1]": {"molecular_target": "T1, 371 kinases (kinase named in each endpoint) (Homo sapiens, UniProt P42685)", "T1 construct": "purchased Reaction Biology", "T1 sequence (P42685 whole entry)": "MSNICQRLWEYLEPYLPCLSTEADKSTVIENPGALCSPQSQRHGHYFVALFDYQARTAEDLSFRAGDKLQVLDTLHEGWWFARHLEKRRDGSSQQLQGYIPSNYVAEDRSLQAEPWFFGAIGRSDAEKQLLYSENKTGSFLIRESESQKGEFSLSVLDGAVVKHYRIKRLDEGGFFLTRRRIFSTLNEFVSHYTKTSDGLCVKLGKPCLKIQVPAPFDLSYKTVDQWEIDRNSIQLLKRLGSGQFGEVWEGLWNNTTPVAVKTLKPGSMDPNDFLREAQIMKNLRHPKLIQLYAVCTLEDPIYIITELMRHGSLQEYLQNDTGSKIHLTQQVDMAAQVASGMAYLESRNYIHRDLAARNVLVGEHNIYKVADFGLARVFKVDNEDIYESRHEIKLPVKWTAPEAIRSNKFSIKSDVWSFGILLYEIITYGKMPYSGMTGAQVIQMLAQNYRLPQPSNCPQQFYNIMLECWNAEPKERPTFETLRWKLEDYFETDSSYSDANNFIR", "details": "FRK/PTK5"}, "[2]": {"molecular_target": "T2, 371 kinases (kinase named in each endpoint) (Homo sapiens, UniProt Q07912)", "T2 construct": "purchased Reaction Biology", "details": "ACK1"}, "[3]": {"molecular_target": "T3, 371 kinases (kinase named in each endpoint) (Homo sapiens, UniProt Q13873)", "T3 construct": "purchased Reaction Biology", "details": "BMPR2"}, "[4]": {"molecular_target": "T4, 371 kinases (kinase named in each endpoint) (Homo sapiens, UniProt P43250)", "T4 construct": "purchased Reaction Biology", "details": "GRK6"}, "[5]": {"molecular_target": "T5, 371 kinases (kinase named in each endpoint) (Homo sapiens, UniProt P49760)", "T5 construct": "purchased Reaction Biology", "details": "CLK2"}, "[6]": {"molecular_target": "T6, 371 kinases (kinase named in each endpoint) (Homo sapiens, UniProt Q13164)", "T6 construct": "purchased Reaction Biology", "details": "ERK5/MAPK7"}, "[7]": {"molecular_target": "T7, 371 kinases (kinase named in each endpoint) (Homo sapiens, UniProt P54762)", "T7 construct": "purchased Reaction Biology", "details": "EPHB1"}, "[8]": {"molecular_target": "T8, 371 kinases (kinase named in each endpoint) (Homo sapiens, UniProt O60307)", "T8 construct": "purchased Reaction Biology", "T8 sequence (O60307 whole entry)": "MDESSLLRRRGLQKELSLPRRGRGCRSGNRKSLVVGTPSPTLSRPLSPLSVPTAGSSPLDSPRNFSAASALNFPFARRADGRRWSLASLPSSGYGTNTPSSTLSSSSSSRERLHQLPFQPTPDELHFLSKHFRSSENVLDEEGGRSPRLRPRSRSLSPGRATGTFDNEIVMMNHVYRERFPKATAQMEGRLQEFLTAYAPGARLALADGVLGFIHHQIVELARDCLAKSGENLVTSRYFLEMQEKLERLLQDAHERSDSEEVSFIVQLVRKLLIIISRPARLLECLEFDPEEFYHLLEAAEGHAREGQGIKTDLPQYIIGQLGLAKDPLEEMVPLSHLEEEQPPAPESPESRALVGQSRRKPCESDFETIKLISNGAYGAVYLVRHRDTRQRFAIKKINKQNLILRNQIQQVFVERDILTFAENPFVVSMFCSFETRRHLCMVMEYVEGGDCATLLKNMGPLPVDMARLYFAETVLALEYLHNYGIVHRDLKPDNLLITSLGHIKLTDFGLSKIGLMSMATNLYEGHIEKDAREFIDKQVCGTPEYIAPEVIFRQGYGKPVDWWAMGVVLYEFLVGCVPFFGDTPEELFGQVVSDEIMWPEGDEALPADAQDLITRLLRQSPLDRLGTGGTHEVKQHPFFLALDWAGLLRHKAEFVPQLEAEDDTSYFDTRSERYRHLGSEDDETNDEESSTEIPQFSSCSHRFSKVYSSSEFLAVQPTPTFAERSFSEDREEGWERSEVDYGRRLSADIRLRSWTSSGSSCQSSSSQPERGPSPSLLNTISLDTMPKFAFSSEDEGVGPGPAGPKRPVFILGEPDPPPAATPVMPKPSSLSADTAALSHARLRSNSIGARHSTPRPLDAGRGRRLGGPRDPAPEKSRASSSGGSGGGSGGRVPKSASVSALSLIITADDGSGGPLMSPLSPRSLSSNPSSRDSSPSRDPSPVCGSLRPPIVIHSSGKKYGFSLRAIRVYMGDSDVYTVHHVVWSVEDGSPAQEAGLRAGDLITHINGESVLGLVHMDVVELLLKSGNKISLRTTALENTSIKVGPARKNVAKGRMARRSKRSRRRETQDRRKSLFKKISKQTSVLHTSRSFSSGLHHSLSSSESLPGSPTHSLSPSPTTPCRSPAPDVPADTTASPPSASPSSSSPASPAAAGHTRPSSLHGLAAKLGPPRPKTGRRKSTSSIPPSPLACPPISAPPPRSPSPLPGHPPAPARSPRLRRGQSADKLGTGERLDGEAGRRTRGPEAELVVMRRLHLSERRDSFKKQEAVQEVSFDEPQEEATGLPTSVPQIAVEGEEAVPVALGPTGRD", "details": "MAST3"}, "[9]": {"molecular_target": "T9, 371 kinases (kinase named in each endpoint) (Homo sapiens, UniProt P42680)", "T9 construct": "purchased Reaction Biology", "T9 sequence (P42680 whole entry)": "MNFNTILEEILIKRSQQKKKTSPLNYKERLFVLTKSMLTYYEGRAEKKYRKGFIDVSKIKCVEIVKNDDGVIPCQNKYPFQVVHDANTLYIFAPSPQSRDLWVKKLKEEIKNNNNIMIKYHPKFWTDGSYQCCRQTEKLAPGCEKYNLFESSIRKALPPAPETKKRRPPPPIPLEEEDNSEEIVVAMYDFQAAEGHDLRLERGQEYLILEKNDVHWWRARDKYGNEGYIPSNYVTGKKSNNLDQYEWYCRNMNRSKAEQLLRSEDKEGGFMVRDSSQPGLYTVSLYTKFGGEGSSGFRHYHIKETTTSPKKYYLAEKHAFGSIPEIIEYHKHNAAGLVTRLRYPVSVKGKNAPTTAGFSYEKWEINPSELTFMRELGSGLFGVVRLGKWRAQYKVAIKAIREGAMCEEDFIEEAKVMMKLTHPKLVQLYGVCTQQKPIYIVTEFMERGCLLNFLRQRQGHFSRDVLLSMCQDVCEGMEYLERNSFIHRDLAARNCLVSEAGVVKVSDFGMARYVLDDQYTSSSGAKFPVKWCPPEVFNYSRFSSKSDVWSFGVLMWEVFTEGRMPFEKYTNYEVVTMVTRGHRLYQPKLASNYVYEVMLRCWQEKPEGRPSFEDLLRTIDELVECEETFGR", "details": "TEC"}, "[10]": {"molecular_target": "T10, 371 kinases (kinase named in each endpoint) (Homo sapiens, UniProt Q04912)", "T10 construct": "purchased Reaction Biology", "T10 sequence (Q04912 25-1400)": "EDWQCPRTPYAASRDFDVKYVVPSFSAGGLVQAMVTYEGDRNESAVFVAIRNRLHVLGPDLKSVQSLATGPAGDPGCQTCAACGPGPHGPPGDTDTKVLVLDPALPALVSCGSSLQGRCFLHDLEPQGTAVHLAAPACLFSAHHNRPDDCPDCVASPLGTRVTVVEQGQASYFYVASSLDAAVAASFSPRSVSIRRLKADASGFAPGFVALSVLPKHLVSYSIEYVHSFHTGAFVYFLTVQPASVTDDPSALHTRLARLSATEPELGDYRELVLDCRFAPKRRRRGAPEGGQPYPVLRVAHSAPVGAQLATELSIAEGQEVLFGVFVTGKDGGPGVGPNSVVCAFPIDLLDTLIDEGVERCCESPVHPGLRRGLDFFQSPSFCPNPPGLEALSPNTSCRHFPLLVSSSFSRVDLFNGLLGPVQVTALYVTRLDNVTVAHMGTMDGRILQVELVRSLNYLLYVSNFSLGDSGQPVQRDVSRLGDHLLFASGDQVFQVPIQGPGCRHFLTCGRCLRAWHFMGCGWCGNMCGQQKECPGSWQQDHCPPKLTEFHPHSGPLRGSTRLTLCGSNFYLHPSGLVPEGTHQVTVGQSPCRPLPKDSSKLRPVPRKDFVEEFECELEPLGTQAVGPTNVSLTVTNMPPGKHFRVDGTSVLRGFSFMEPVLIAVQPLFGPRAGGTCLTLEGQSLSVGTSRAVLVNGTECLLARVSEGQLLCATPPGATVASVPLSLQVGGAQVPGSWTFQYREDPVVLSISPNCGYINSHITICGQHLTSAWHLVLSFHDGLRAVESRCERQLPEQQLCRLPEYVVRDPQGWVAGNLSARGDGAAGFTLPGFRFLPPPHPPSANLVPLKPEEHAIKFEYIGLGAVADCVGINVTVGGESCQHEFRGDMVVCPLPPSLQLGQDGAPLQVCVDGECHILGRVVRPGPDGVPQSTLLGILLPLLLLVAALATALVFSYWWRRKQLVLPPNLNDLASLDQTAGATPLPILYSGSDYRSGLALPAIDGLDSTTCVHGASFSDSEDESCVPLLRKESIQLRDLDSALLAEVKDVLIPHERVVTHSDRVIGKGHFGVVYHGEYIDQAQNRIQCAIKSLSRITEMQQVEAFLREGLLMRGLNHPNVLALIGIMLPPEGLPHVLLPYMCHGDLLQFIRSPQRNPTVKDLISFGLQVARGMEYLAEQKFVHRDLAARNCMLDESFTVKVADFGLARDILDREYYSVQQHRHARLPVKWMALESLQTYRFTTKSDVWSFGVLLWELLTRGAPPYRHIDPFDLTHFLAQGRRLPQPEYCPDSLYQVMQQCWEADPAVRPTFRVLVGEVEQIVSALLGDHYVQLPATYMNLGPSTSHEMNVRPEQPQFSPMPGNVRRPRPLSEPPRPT", "details": "RON/MST1R"}, "[11]": {"molecular_target": "T11, 371 kinases (kinase named in each endpoint) (Homo sapiens, UniProt Q14680)", "T11 construct": "purchased Reaction Biology", "details": "MELK"}, "[12]": {"molecular_target": "T12, 371 kinases (kinase named in each endpoint) (Homo sapiens, UniProt Q8N5S9)", "T12 construct": "purchased Reaction Biology", "details": "CAMKK1"}, "[13]": {"molecular_target": "T13, 371 kinases (kinase named in each endpoint) (Homo sapiens, UniProt Q99683)", "T13 construct": "purchased Reaction Biology", "details": "ASK1/MAP3K5"}, "[14]": {"molecular_target": "T14, 371 kinases (kinase named in each endpoint) (Homo sapiens, UniProt P06241)", "T14 construct": "purchased Reaction Biology", "details": "FYN"}, "[15]": {"molecular_target": "T15, 371 kinases (kinase named in each endpoint) (Homo sapiens, UniProt P49840)", "T15 construct": "purchased Reaction Biology", "details": "GSK3a"}, "[16]": {"molecular_target": "T16, 371 kinases (kinase named in each endpoint) (Homo sapiens, UniProt Q5S007)", "T16 construct": "purchased Reaction Biology", "details": "LRRK2"}, "[17]": {"molecular_target": "T17, 371 kinases (kinase named in each endpoint) (Homo sapiens, UniProt O94806)", "T17 construct": "purchased Reaction Biology", "details": "PKCNU/PRKD3"}, "[18]": {"molecular_target": "T18, 371 kinases (kinase named in each endpoint) (Homo sapiens, UniProt P45983)", "T18 construct": "purchased Reaction Biology", "details": "JNK1"}, "[19]": {"molecular_target": "T19, 371 kinases (kinase named in each endpoint) (Homo sapiens, UniProt Q9Y243)", "T19 construct": "purchased Reaction Biology", "details": "AKT3"}, "[20]": {"molecular_target": "T20, 371 kinases (kinase named in each endpoint) (Homo sapiens, UniProt Q05513)", "T20 construct": "purchased Reaction Biology", "details": "PKCZETA"}, "[21]": {"molecular_target": "T21, 371 kinases (kinase named in each endpoint) (Homo sapiens, UniProt O00311)", "T21 construct": "purchased Reaction Biology", "details": "CDC7/DBF4"}, "[22]": {"molecular_target": "T22, 371 kinases (kinase named in each endpoint) (Homo sapiens, UniProt Q13188)", "T22 construct": "purchased Reaction Biology", "details": "MST2/STK3"}, "[23]": {"molecular_target": "T23, 371 kinases (kinase named in each endpoint) (Homo sapiens, UniProt Q9H2K8)", "T23 construct": "purchased Reaction Biology", "details": "TAOK3/JIK"}, "[24]": {"molecular_target": "T24, 371 kinases (kinase named in each endpoint) (Homo sapiens, UniProt P29320)", "T24 construct": "purchased Reaction Biology", "details": "EPHA3"}, "[25]": {"molecular_target": "T25, 371 kinases (kinase named in each endpoint) (Homo sapiens, UniProt Q04759)", "T25 construct": "purchased Reaction Biology", "details": "PKCTHETA"}, "[26]": {"molecular_target": "T26, 371 kinases (kinase named in each endpoint) (Homo sapiens, UniProt O95747)", "T26 construct": "purchased Reaction Biology", "details": "OSR1/OXSR1"}, "[27]": {"molecular_target": "T27, 371 kinases (kinase named in each endpoint) (Homo sapiens, UniProt Q8IVT5)", "T27 construct": "purchased Reaction Biology", "details": "KSR1"}, "[28]": {"molecular_target": "T28, 371 kinases (kinase named in each endpoint) (Homo sapiens, UniProt Q99986)", "T28 construct": "purchased Reaction Biology", "details": "VRK1"}, "[29]": {"molecular_target": "T29, 371 kinases (kinase named in each endpoint) (Homo sapiens, UniProt O94804)", "T29 construct": "purchased Reaction Biology", "details": "LOK/STK10"}, "[30]": {"molecular_target": "T30, 371 kinases (kinase named in each endpoint) (Homo sapiens, UniProt Q13233)", "T30 construct": "purchased Reaction Biology", "details": "MEKK1"}, "[31]": {"molecular_target": "T31, 371 kinases (kinase named in each endpoint) (Homo sapiens, UniProt Q9BUB5)", "T31 construct": "purchased Reaction Biology", "details": "MNK1"}, "[32]": {"molecular_target": "T32, 371 kinases (kinase named in each endpoint) (Homo sapiens, UniProt Q9NQU5)", "T32 construct": "purchased Reaction Biology", "T32 sequence (Q9NQU5 whole entry)": "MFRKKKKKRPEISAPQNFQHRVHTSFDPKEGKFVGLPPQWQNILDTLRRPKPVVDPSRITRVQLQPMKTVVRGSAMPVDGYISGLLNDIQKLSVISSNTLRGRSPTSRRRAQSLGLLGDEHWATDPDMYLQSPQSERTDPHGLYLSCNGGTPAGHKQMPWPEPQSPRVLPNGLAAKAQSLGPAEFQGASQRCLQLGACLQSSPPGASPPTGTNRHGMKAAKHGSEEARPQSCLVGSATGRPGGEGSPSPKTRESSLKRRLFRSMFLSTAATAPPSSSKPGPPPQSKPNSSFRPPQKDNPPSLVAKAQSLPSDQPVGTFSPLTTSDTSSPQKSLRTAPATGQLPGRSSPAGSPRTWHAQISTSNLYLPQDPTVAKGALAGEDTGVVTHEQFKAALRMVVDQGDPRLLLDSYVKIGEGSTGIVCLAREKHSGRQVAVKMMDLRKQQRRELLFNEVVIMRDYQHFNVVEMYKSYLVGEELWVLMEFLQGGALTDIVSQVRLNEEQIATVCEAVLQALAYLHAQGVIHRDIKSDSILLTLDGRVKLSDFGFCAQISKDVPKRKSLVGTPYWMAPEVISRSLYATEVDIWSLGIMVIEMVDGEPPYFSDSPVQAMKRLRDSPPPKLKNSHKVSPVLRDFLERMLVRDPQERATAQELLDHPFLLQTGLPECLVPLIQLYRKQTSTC", "details": "PAK6"}, "[33]": {"molecular_target": "T33, 371 kinases (kinase named in each endpoint) (Homo sapiens, UniProt Q16512)", "T33 construct": "purchased Reaction Biology", "details": "PKN1/PRK1"}, "[34]": {"molecular_target": "T34, 371 kinases (kinase named in each endpoint) (Homo sapiens, UniProt O75914)", "T34 construct": "purchased Reaction Biology", "T34 sequence (O75914 whole entry)": "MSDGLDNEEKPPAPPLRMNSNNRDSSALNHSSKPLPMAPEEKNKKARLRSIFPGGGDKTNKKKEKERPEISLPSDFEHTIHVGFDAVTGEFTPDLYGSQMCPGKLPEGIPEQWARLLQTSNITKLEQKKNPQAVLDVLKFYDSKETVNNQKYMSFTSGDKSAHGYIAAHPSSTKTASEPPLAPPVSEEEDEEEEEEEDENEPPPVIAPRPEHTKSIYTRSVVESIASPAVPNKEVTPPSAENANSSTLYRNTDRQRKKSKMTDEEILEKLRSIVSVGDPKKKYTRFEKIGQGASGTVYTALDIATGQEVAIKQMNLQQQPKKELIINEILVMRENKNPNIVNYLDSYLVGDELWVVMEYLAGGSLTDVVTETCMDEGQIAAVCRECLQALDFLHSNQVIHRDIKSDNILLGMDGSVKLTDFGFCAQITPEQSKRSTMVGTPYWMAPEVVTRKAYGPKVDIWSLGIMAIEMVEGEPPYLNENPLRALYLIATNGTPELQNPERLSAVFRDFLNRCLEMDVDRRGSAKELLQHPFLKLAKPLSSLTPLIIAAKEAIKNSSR", "details": "PAK3"}, "[35]": {"molecular_target": "T35, 371 kinases (kinase named in each endpoint) (Homo sapiens, UniProt Q96PF2)", "T35 construct": "purchased Reaction Biology", "details": "TSSK2"}, "[36]": {"molecular_target": "T36, 371 kinases (kinase named in each endpoint) (Homo sapiens, UniProt Q9NRM7)", "T36 construct": "purchased Reaction Biology", "details": "LATS2"}, "[37]": {"molecular_target": "T37, 371 kinases (kinase named in each endpoint) (Homo sapiens, UniProt Q9BYP7)", "T37 construct": "purchased Reaction Biology", "details": "WNK3"}}}
{"smiles": "O=C(O)c1cc(C(F)(F)F)ccc1NCCc1c[nH]c2cc(Br)ccc12", "note": "[Compound 5, 2-((2-(6-Bromo-1H-indol-3-yl)ethyl)amino)−5-(trifluoromethyl)benzoic Acid]", "values": [{"measurement": "activity at 10 µM", "setting": "[1]", "value": "90.1 ± 1.1", "unit": "%"}, {"measurement": "activity at 10 µM", "setting": "[2]", "value": "92 ± 0.4", "unit": "%"}, {"measurement": "activity at 10 µM", "setting": "[3]", "value": "88 ± 5.4", "unit": "%"}, {"measurement": "activity at 10 µM", "setting": "[4]", "value": "112 ± 2.8", "unit": "%"}, {"measurement": "activity at 10 µM", "setting": "[5]", "value": "104.3 ± 0.7", "unit": "%"}, {"measurement": "activity at 10 µM", "setting": "[6]", "value": "121 ± 3", "unit": "%"}, {"measurement": "activity at 10 µM", "setting": "[7]", "value": 91.2, "unit": "%"}, {"measurement": "activity at 10 µM", "setting": "[8]", "value": "94.9 ± 0.2", "unit": "%"}, {"measurement": "activity at 10 µM", "setting": "[9]", "value": "101 ± 1.6", "unit": "%"}, {"measurement": "activity at 10 µM", "setting": "[10]", "value": "89.7 ± 2.7", "unit": "%"}, {"measurement": "activity at 10 µM", "setting": "[11]", "value": "95.8 ± 3", "unit": "%"}, {"measurement": "activity at 10 µM", "setting": "[12]", "value": "65.6 ± 1.3", "unit": "%"}, {"measurement": "activity at 10 µM", "setting": "[13]", "value": "110 ± 2.8", "unit": "%"}, {"measurement": "activity at 10 µM", "setting": "[14]", "value": "86.4 ± 1.8", "unit": "%"}, {"measurement": "activity at 10 µM", "setting": "[15]", "value": "67.6 ± 0.3", "unit": "%"}, {"measurement": "activity at 10 µM", "setting": "[16]", "value": "99.5 ± 0.1", "unit": "%"}, {"measurement": "activity at 10 µM", "setting": "[17]", "value": "139 ± 7.1", "unit": "%"}, {"measurement": "activity at 10 µM", "setting": "[18]", "value": "88.4 ± 1.1", "unit": "%"}, {"measurement": "activity at 10 µM", "setting": "[19]", "value": "90.2 ± 0.5", "unit": "%"}, {"measurement": "activity at 10 µM", "setting": "[20]", "value": "126.6 ± 0.3", "unit": "%"}, {"measurement": "activity at 10 µM", "setting": "[21]", "value": "77.9 ± 2.9", "unit": "%"}, {"measurement": "activity at 10 µM", "setting": "[22]", "value": "134 ± 0.4", "unit": "%"}, {"measurement": "activity at 10 µM", "setting": "[23]", "value": "83.3 ± 2.1", "unit": "%"}, {"measurement": "activity at 10 µM", "setting": "[24]", "value": "99.7 ± 1.6", "unit": "%"}, {"measurement": "activity at 10 µM", "setting": "[25]", "value": "95.5 ± 0.4", "unit": "%"}, {"measurement": "activity at 10 µM", "setting": "[26]", "value": "59.4 ± 2.8", "unit": "%"}, {"measurement": "activity at 10 µM", "setting": "[27]", "value": "92.9 ± 2.5", "unit": "%"}, {"measurement": "activity at 10 µM", "setting": "[28]", "value": "105 ± 1.5", "unit": "%"}, {"measurement": "activity at 10 µM", "setting": "[29]", "value": "88.1 ± 0.3", "unit": "%"}, {"measurement": "activity at 10 µM", "setting": "[30]", "value": "110 ± 0.1", "unit": "%"}, {"measurement": "activity at 10 µM", "setting": "[31]", "value": "79 ± 0.9", "unit": "%"}, {"measurement": "activity at 10 µM", "setting": "[32]", "value": "244 ± 9", "unit": "%"}, {"measurement": "activity at 10 µM", "setting": "[33]", "value": "123 ± 1.9", "unit": "%"}, {"measurement": "activity at 10 µM", "setting": "[34]", "value": "84 ± 0.9", "unit": "%"}, {"measurement": "activity at 10 µM", "setting": "[35]", "value": "79.9 ± 2.4", "unit": "%"}, {"measurement": "activity at 10 µM", "setting": "[36]", "value": "79.1 ± 1.6", "unit": "%"}, {"measurement": "activity at 10 µM", "setting": "[37]", "value": "100.7 ± 0.4", "unit": "%"}]}
